The results in this text go back to patent US3991202A, “Imidazolium salts” (Janssen Pharmaceutica N.V., priority 1974, dated 1976).

Common to all, as to assay type: cell-based
One assay has as its system Escherichia coli. The assay can be described thus: Antibacterial growth inhibition in phenol red dextrose broth. Particulars: 168 h, E. coli, tested at 100, 10, 1 μg/ml, read-out: Concentration in μ g for 100% Growth Inhibition. As for the experimental part: (§1) The tests on bacteria were performed on cultures on phenol red dextrose broth medium (Difco). By using decimal dilution techniques described for the tests for antifungal activity, test media containing 100 μg, 10 μg and 1 μg of imidazolium salt per milliliter of medium were obtained. The inoculum consisted of a platinum loop (5 mm diameter) from a 24 hour broth culture. Forty-eight hours after incubation, subcultures were made from each culture for the determination of antibacterial activity of the imidazolium salts. After seven days of incubation, observations were made to determine the presence or absence of bacterial growth.

Another assay relates to Streptococcus pyogenes. The description is as above. Conditions: 168 h, Strep., tested at 100, 10, 1 μg/ml, read-out: Concentration in μ g for 100% Growth Inhibition. On the procedure: as §1
The subject of another assay is Erysipelothrix insidiosa. The assay is described as above. Conditions: Erysipelothrix rhusiopathiae, 168 h; E. ins.; tested at 100, 10, 1 μg/ml; read-out: Concentration in μ g for 100% Growth Inhibition. On the procedure: as §1
In assay [1] the test system is Salmonella pullorum gallinarum. The assay is described as above. Conditions: Salmonella enterica, 168 h; Sp. G.; tested at 100, 10, 1 μg/ml; read-out: Concentration in μ g for 100% Growth Inhibition. As for the experimental part:
as §1

Assay [2] deals with Staphylococcus hemolyticus. Described as above. Particulars: 168 h, Staph., tested at 100, 10, 1 μg/ml, read-out: Concentration in μ g for 100% Growth Inhibition. As for the experimental part: as §1
In the next assay the test system is Pseudomonas aeruginosa. The assay is described as above. Particulars: 168 h, Ps. aer., tested at 100, 10, 1 μg/ml, read-out: Concentration in μ g for 100% Growth Inhibition. On the procedure:
as §1

In the next assay the test system is Microsporum canis. Nature of the assay: Antifungal growth inhibition in Sabouraud's liquid medium. Conditions: Microsporum canis, 336 h; M.c.; tested at 100, 10, 1 μg/ml; read-out: Concentrations in μg/ml for 100% Inhibition of Growth. On the procedure:
(§2) Tests for the control of fungal organisms were performed using Sabouraud's liquid medium (1 g. of neopeptone Difco and 2 g. of glucose Difco per 100 ml. distilled water) in test tubes, each containing 4.5 ml. of liquid medium, autoclaved at 120° C for 15 minutes. The imidazolium salts were prepared for testing by dissolving in 50% ethanol to a concentration of 20 mg./ml. and thereafter diluting with sterile distilled water to obtain a concentration of 10 mg./ml. Successive decimal dilutions were then made with sterile distilled water to prepare a series of test solutions. In carrying out the test, 0.5 ml. of one of the test solutions is added to 4.5 ml. of Sabouraud's liquid medium to obtain a test medium. In this manner, from appropriate test solution, test media containing 100 μg, 10 μg and 1 μg of imidazolium salt per milliliter of medium were obtained.
(§3) Control tubes were prepared by adding 0.5 ml. of sterile distilled water to 4.5 ml. of medium. Ethanol was also added to simulate the amount which would be present in the test media. Filamentous fungi were incubated at 25° C for two to three weeks. A square block of side 2 mm. was excised and inoculated into the liquid medium. A 3-day old culture on Sabouraud's liquid medium was used for yeasts. The inoculum was 0.05 ml. per tube. All cultures were incubated at 25° C for 14 days.

Assay [3] concerns Ctenomyces mentagrophytes. The assay is described as above. Conditions: Trichophyton mentagrophytes, 336 h; Ct.m.; tested at 100, 10, 1 μg/ml; read-out: Concentrations in μg/ml for 100% Inhibition of Growth. On the procedure:
as §2, §3

In the next assay the test system is Trichophyton rubrum. Described as above. Conditions: Trichophyton rubrum, 336 h; Tr.r.; tested at 100, 10, 1 μg/ml; read-out: Concentrations in μg/ml for 100% Inhibition of Growth. On the procedure: as §2, §3
The next assay relates to Cryptococcus neoformans. Described as above. Particulars: Cryptococcus neoformans, 336 h; Cr.n.; tested at 100, 10, 1 μg/ml; read-out: Concentrations in μg/ml for 100% Inhibition of Growth. On the procedure:
as §2, §3

Consider `Fc1ccc(C(c2ccccc2)[n+]2ccn(CC(OCc3ccc(Cl)cc3Cl)c3ccc(Cl)cc3Cl)c2)cc1` (stereo not drawn), for which the MIC with Escherichia coli is 10 µg/mL; in the assay with Streptococcus pyogenes, 1 µg/mL; in the assay with Erysipelothrix insidiosa, 1 µg/mL; in assay [1], 10 µg/mL; in assay [2], 1 µg/mL; in the assay with Pseudomonas aeruginosa, 100 µg/mL.

Regarding `Clc1ccc(Cn2cc[n+](CC(OCc3c(Cl)cccc3Cl)c3ccc(Cl)cc3Cl)c2)c(Cl)c1.[Cl-]` (stereo not drawn) [1-(2,4-Dichlorobenzyl)-3-[2,4-dichloro-β-(2,6-dichlorobenzyloxy)phenethyl]imidazolium chloride], the MIC was 10 µg/mL in the assay with Escherichia coli; 1 µg/mL with Streptococcus pyogenes; 1 µg/mL in the assay on Erysipelothrix insidiosa; 10 µg/mL in [1]; 1 µg/mL in assay [2]; 100 µg/mL in the assay with Pseudomonas aeruginosa.

Turning to `Cc1ccccc1NC(=O)C[n+]1ccn(CC(OCc2c(Cl)cccc2Cl)c2ccc(Cl)cc2Cl)c1` (stereo not drawn) [1-[2,4-dichloro-β-(2,6-dichlorobenzyloxy)phenethyl]-3-(N-o-tolylcarbamoylmethyl)imidazolium chloride], the MIC in the assay on Escherichia coli came to 100 µg/mL; in the assay on Streptococcus pyogenes, 1 µg/mL; with Erysipelothrix insidiosa, 10 µg/mL; in assay [1], 10 µg/mL; in assay [2], 10 µg/mL; with Pseudomonas aeruginosa it was 100 µg/mL.

Consider `O=C(C[n+]1ccn(CC(OCc2c(Cl)cccc2Cl)c2ccc(Cl)cc2Cl)c1)Nc1ccc(F)cc1` (stereo not drawn) [1-[2,4-dichloro-β-(2,6-dichlorobenzyloxy)phenethyl]-3-[N-(p-fluorophenyl)carbamoylmethyl]imidazolium chloride], for which the MIC in the assay on Escherichia coli was 10 µg/mL; with Streptococcus pyogenes it was 1 µg/mL; in the assay with Erysipelothrix insidiosa, 1 µg/mL; in [1] it was 10 µg/mL; in assay [2], 1 µg/mL; in the assay with Pseudomonas aeruginosa, 100 µg/mL.

Consider `O.OC(C[n+]1ccn(CC(OCc2ccc(Cl)cc2)c2ccc(Cl)cc2Cl)c1)c1ccc(Cl)cc1.[Br-]` (stereo not drawn) [2,4(Cl)2C6H3/CH2C6H4pCl/CH2CHOHC6H4pCl, 1-[β-(p-Chlorobenzyloxy)-2,4-dichlorophenethyl]-3-(p-chloro-β-hydroxyphenethyl)imidazolium bromide hydrate], for which the MIC with Escherichia coli is 10 µg/mL; in the assay with Streptococcus pyogenes it was 1 µg/mL; with Erysipelothrix insidiosa, 1 µg/mL; in assay [1], 10 µg/mL; in [2], 1 µg/mL; in the assay on Pseudomonas aeruginosa, 100 µg/mL.

Turning to `O=C(C[n+]1ccn(CC(OCc2ccc(Cl)cc2)c2ccc(Cl)cc2Cl)c1)c1ccc(F)cc1.[Cl-]` (stereo not drawn) [2,4(Cl)2C6H3/CH2C6H4pCl/CH2COC6H4pF, 1-[2,4-Dichloro-β-(p-chlorobenzyloxy)phenethyl]-3-(p-fluorophenacyl)imidazolium chloride], the MIC in the assay with Escherichia coli amounted to 100 µg/mL; in the assay on Streptococcus pyogenes it was 1 µg/mL; with Erysipelothrix insidiosa it was 1 µg/mL; in assay [1], 10 µg/mL; in [2] it was 1 µg/mL; in the assay with Pseudomonas aeruginosa, 100 µg/mL.

Take `Fc1ccc(CC[n+]2ccn(CC(OCc3ccc(Cl)cc3Cl)c3ccc(Cl)cc3Cl)c2)cc1.O.[Br-]` (stereo not drawn) [(CH2)2C6H4pF, 1-[2,4-Dichloro-β-(2,4-dichlorobenzyloxy)phenethyl]-3-(p-fluorophenethyl)imidazolium bromide hydrate]: the MIC in the assay with Escherichia coli came out at 100 µg/mL; with Streptococcus pyogenes, 1 µg/mL; in the assay with Erysipelothrix insidiosa, 10 µg/mL; in assay [1] it was 10 µg/mL; in [2], 1 µg/mL; with Pseudomonas aeruginosa it was 100 µg/mL.

On to `COc1ccc(CC[n+]2ccn(CC(OCc3ccc(Cl)cc3Cl)c3ccc(Cl)cc3Cl)c2)cc1.[Cl-]` (stereo not drawn) [(CH2)2C6H4pOCH3, 1-[2,4-dichloro-β-(2,4-dichlorobenzyloxy)phenethyl]-3-(p-methoxyphenethyl)imidazolium chloride], for which the MIC stood at 100 µg/mL in the assay on Escherichia coli; 1 µg/mL in the assay on Streptococcus pyogenes; 1 µg/mL in the assay with Erysipelothrix insidiosa; 10 µg/mL in assay [1]; 1 µg/mL in assay [2]; 100 µg/mL in the assay on Pseudomonas aeruginosa.

As to `Clc1ccc(COC(Cn2cc[n+](CCc3ccccc3)c2)c2ccc(Cl)cc2Cl)c(Cl)c1.[Br-]` (stereo not drawn) [(CH2)2C6H5, 1-[2,4-Dichloro-β-(2,4-dichlorobenzyloxy)phenethyl]-3-phenethylimidazolium bromide], the MIC with Escherichia coli was found to be 10 µg/mL; with Streptococcus pyogenes, 1 µg/mL; in the assay on Erysipelothrix insidiosa, 1 µg/mL; in [1], 10 µg/mL; in assay [2] it was 1 µg/mL; in the assay on Pseudomonas aeruginosa, 100 µg/mL.

As to `O=C(CCn1cc[n+](CC(OCc2ccc(Cl)cc2Cl)c2ccc(Cl)cc2Cl)c1)Nc1ccccc1Cl.[Cl-]` (stereo not drawn) [(CH2)2CONHC6H4oCl, 1-{2-[N-(o-Chlorophenyl)carbamoyl]ethyl}-3-[2,4-dichloro-β-(2,4-dichlorobenzyloxy)phenethyl]imidazolium chloride], the MIC with Escherichia coli is 10 µg/mL; with Streptococcus pyogenes it was 1 µg/mL; in the assay with Erysipelothrix insidiosa it was 1 µg/mL; in assay [1], 10 µg/mL; in assay [2], 1 µg/mL; in the assay on Pseudomonas aeruginosa it was 100 µg/mL.

As for `Cc1cc(Cl)ccc1NC(=O)CCn1cc[n+](CC(OCc2ccc(Cl)cc2Cl)c2ccc(Cl)cc2Cl)c1.[Cl-]` (stereo not drawn) [(CH2)2CONHC6H32,4(CH3,Cl), 1-{2-[N-(4-chloro-o-tolyl)carbamoyl]ethyl}-3-[2,4-dichloro-β-(2,4-dichlorobenzyloxy)phenethyl]imidazolium chloride], the MIC in the assay on Escherichia coli came to 100 µg/mL; in the assay with Streptococcus pyogenes, 1 µg/mL; in the assay on Erysipelothrix insidiosa, 1 µg/mL; in assay [1] it was 10 µg/mL; in assay [2] it was 1 µg/mL; in the assay on Pseudomonas aeruginosa, 100 µg/mL.

As to `Clc1ccc(COC(C[n+]2ccn(CCNc3ccccc3)c2)c2ccc(Cl)cc2Cl)c(Cl)c1.[Br-]` (stereo not drawn) [(CH2)2NHC6H5, 1-(2-Anilinoethyl)-3-[2,4-dichloro-β-(2,4-dichlorobenzyloxy)phenethyl]imidazolium bromide], the MIC in the assay on Escherichia coli is 10 µg/mL; in the assay with Streptococcus pyogenes it was 1 µg/mL; with Erysipelothrix insidiosa, 1 µg/mL; in [1], 10 µg/mL; in assay [2] it was 1 µg/mL; in the assay on Pseudomonas aeruginosa, 100 µg/mL.

Turning to `CCCCCCCC[n+]1ccn(CC(OCc2ccc(Cl)cc2Cl)c2ccc(Cl)cc2Cl)c1.[Br-]` (stereo not drawn) [nC8H17, 1-[2,4-dichloro-β-(2,4-dichlorobenzyloxy)phenethyl]3-n-octylimidazolium bromide], the MIC in the assay with Microsporum canis came to 10 µg/mL; in assay [3] it was 10 µg/mL; with Trichophyton rubrum, 1 µg/mL; in the assay with Cryptococcus neoformans, 100 µg/mL.

Take `O=C(C[n+]1ccn(CC(OCc2ccc(Cl)cc2)c2ccc(Cl)cc2)c1)c1ccc(F)cc1` (stereo not drawn) [pClC6H4/CH2C6H4pCl/CH2COC6H4pF, 1-[p-Chloro-β-(p-chlorobenzyloxy)phenethyl]-3-(p-flurophenacyl)imidazolium chloride]: the MIC (in the assay with Microsporum canis; in assay [3]; in the assay on Trichophyton rubrum; in the assay with Cryptococcus neoformans) was 10 µg/mL throughout.

For `O=C(C[n+]1ccn(CC(OCc2ccc(Cl)cc2Cl)c2ccc(Cl)cc2)c1)c1ccc(F)cc1.[Cl-]` (stereo not drawn) [pClC6H4/CH2C6H32,4(Cl)2/CH2COC6H4pF, 1-[p-chloro-β-(2,4-dichlorobenzyloxy)phenethyl]-3-(p-fluorophenacyl)imidazolium chloride], the MIC (in the assay on Microsporum canis; in [3]; in the assay on Trichophyton rubrum; in the assay with Cryptococcus neoformans) was 10 µg/mL throughout.
